Test system: Oxidatively competent cells
Assay: Antimycin A-induced cell death in oxidatively competent cells, SYTOX assay after 4 hours
Type: cell-based, rat-human hybrid (GCL1)
Settings: for cell death when tested individually: highest concentrations tested; for Cell Death (%): ± SD; for potency among the tocopherols tested: Table 1 comparison
Description: The GCL1 (WiF-B) liver cell line is a hybrid originating from the fusion of rat hepatoma cells (fao) and human fibroblasts (W138). Cassio et al. (1991) J. Cell Biol. 115:1397-1408; Shanks et al. (1994) J. Cell Science 107:813-825. […] Ihrke et al. 1993, J. Cell Biol. 123:1761-1775. At greater than 80% confluence, more than 80% of the cells participate in forming one or more phaselucent, spherical structures that are located between cells, termed bile canicular-like spaces. In contrast to the majority of cell lines maintained in culture which are fermentative, GCL1 cells, when at their maximal density and polarity, are highly oxidative (i.e., they can be readily killed by inhibitors of oxidative phosphorylation or electron transport uncouplers). […] These cells are amenable to use in high throughput screening (HTS) technology.
Energetically competent cells are seeded onto 96-well plates at 1×10^3/well or 2.5×10^3/well as passage 15. The cells are grown in DMEM with 10% FBS and 1.5 g/L sodium bicarbonate for 24 or 48 hours to reach 85% confluence. The cells are washed once with HBSS and then 100 μl of HBSS containing different concentration of AA (Sigma Chemical Co., Cat # A 8674) is added to the cells. AA is dissolved in DMSO to make a stock solution of 50 mM, then diluted with HBSS to 100, 50, 25, 12.5, 6.25, 3.125, and 1.56 μM for dose-response curves. The cells, with or without AA, are incubated at 37° C. in a 5% CO2 humidified incubator for 1, 3, and 5 hours. The concentration of AA is chosen to induce 75% or 100% cell death as a screening dose to test the effect of tocopherols to protect against AA-induced cell toxicity. The concentration of agents used for screening will be dependent upon the agents. Certain control groups contain 100 μl of HBSS only.
SYTOX Green nucleic acid stain is a high-affinity nucleic acid stain that easily penetrates cells with a compromised plasma membrane but will not cross the membrane of live cells. The nucleic acids of dead cells fluoresce bright green at 524 nm when excited with the 488 nm spectral source or with any other 450-500 nm source. […] In the cell viability assay chemical ischemia is created in cells that are incubated with the SYTOX dye. The compound antimycin is used to simulate ischemia at the same time as stimulating the cells with forskolin. […] The assay is performed on cells grown in 96-well format allowing high throughput screening of compounds.
Materials: (i)SYTOX Green dye, supplied as a 5 mM solution in DMSO (Molecular Probes # S-7020) is stored at −20° C. until use. ii.) Antimycin-A: (Sigma # A-8674) dissolve […] in 10 ml of DMSO to make a 10 mM stock solution. Aliquot at 100 μl. This 10 mM stock is then diluted to 1 mM with DMSO and aliquoted at 25 μL. Both the 10 mM and the 1 mM are stored at −20° C. until use. (iii) Forskolin (Sigma # F-6886), dissolve 50 mg aliquot in 1.62 ml of DMSO to make a 100 mM stock solution. Aliquot at 100 μl and store at −20° C. until use. iv.) HBSS-SYTOX-FORSKOLIN-ANTIMYCIN (H-S-F-A) solution: H-S-F-A solution is made up fresh prior to each assay in sterile 175 ml or 225 ml Falcon bottles. The working concentrations for the assay are 3 μM SYTOX, 50 μM Forskolin and 30 μM Antimycin.
Cells are grown in 96-well black plates (with or without clear bottoms) at a density of 1000 cells per well for 24 hours. The necessary number of 96-well plates containing the specific cell type are obtained and placed in the laminar flow safety cabinet. A sterile microtiter basin is filled with the appropriate volume of pre-warmed 1×HBSS. Using aseptic technique and an 8-channel aspirator, the media is carefully removed from the cells and replaced with 200 μl of 1×HBSS. This is done as quickly as possible to prevent the cells drying out. The plates are then placed in the humidified 37° C. incubators of the Biomek 2000 Side Loader.

[1] = dose 1.2 μg/ml, with antimycin A, 4 hours, SYTOX
[2] = dose 3.7 μg/ml, with antimycin A, 4 hours, SYTOX
[3] = dose 11 μg/ml, with antimycin A, 4 hours, SYTOX
[4] = dose 33 μg/ml, with antimycin A, 4 hours, SYTOX
[5] = dose 100 μg/ml, with antimycin A, 4 hours, SYTOX
[6] = salts of (+)alpha-tocopherol, dose of tocopherol 1.2 μg/ml
[7] = salts of (+)alpha-tocopherol, dose of tocopherol 3.7 μg/ml
[8] = salts of (+)alpha-tocopherol, dose of tocopherol 11 μg/ml
[9] = salts of (+)alpha-tocopherol, dose of tocopherol 33 μg/ml
[10] = salts of (+)alpha-tocopherol, dose of tocopherol 100 μg/ml

Compound | Cell Death (%) [1] | Cell Death (%) [2] | Cell Death (%) [3] | Cell Death (%) [4] | Cell Death (%) [5] | Cell Death (%) [6] | Cell Death (%) [7] | Cell Death (%) [8] | Cell Death (%) [9] | Cell Death (%) [10] | other results
Cc1c(C)c2c(c(C)c1O)CCC(C)(CCCC(C)CCCC(C)CCCC(C)C)O2 (racemic) [(+/−) alpha-tocopherol, 2,5,7,8-tetramethyl-2-(4′,8′,12′-trimethyltridecyl)-6-chromanol] | 77.2% ± 0.8 | 73.5% ± 1.2 | 52.4% ± 3.4 | 44.2% ± 1.2 | 19.7% ± 2.9 | – | – | – | – | – | protection against stress-induced cell death ((+/−) alpha-tocopherol alone at 10 μg/ml): about 15%; cell death (Example 7, alone at 10 μg/ml (highest concentration tested)): 53%; cell death (Example 8, tocopherol alone at 10 μg/ml): 79.4%; cell death when tested individually (daidzein experiment): over half of the cells died
Cc1c(C)c2c(c(C)c1O)CC[C@@](C)(CCC[C@H](C)CCC[C@H](C)CCCC(C)C)O2 (relative stereo) [(+) alpha-tocopherol, [2R-2R*(4R*,8R*)]-3,4-dihydro-2,5,7,8-tetramethyl-2-(4,8,12-trimethyltridecyl)-2H-1-benzopyran-6-ol] | 77.0% ± 2.5 | 70.13% ± 5.8 | 64.4% ± 3.1 | 49.8% ± 6.0 | 33.78% ± 1.5 | – | – | – | – | – | –
Cc1cc(O)cc2c1O[C@](C)(CCC[C@H](C)CCC[C@H](C)CCCC(C)C)CC2 (relative stereo) [(+) delta-tocopherol, [2R-[2R*(4R*,8R*)]]-3,4-dihydro-2,8-dimethyl-2-(4,8,12-trimethyltridecyl)-2H-1-benzo-pyran-6-ol] | 61.3% ± 4.2 | 39.3% ± 3.8 | 21.3% ± 1.0 | −8.19% ± 1.4 | −68.19% ± | – | – | – | – | – | potency among the tocopherols tested: most potent
Cc1c(O)cc2c(c1C)OC(C)(CCCC(C)CCCC(C)CCCC(C)C)CC2 (centres unmarked) [+ gamma-tocopherol, 3,4-dihydro-2,7,8-trimethyl-2-(4,8,12-trimethyltridecyl)-2H-1-benzyopyran-6-ol] | 76.8 ± 3.1% | 69.3 ± 3.3% | 37.2 ± 0.7% | 16.7 ± 1.9% | −8.5 ± 3.3% | – | – | – | – | – | cell death (Example 7, alone at 1 μg/ml (highest concentration tested)): 62.5%; potency among the tocopherols tested: most potent; protection against stress-induced cell death (gamma-tocopherol alone, 0.03-0.3 μg/ml): not protective by itself
CC(=O)Oc1c(C)c(C)c2c(c1C)CCC(C)(CCC[C@H](C)CCC[C@H](C)CCCC(C)C)O2 (stereo partly drawn) [alpha-tocopherol acetate] | – | – | – | – | – | 73.2% ± 3.3 | 77.5% ± 4.9 | 71.1% ± 1.5 | 64.8% ± 4.9 | 38.% ± 2.3 | Cell Death (%) (salts of (+)alpha-tocopherol, dose of tocopherol 100 μg/ml, listed as acetate salt of alpha-tocopherol): 38%
Cc1c(C)c2c(c(C)c1OC(=O)c1cccnc1)CC[C@@](C)(CCC[C@H](C)CCC[C@H](C)CCCC(C)C)O2 [alpha-tocopherol nicotinate] | – | – | – | – | – | 81.0 ± 2.5% | 76.8 ± 7.0% | 74.0 ± 2.4% | 77.5 ± 3.0% | 67.5 ± 2.8% | –
Cc1c(C)c2c(c(C)c1OP(=O)(O)O)CC[C@@](C)(CCC[C@H](C)CCC[C@H](C)CCCC(C)C)O2 [alpha-tocopherol phosphate] | – | – | – | – | – | 79.7 ± 8.7% | 76.5 ± 4.2% | 83.9 ± 4.4% | 47.2 ± 10.8% | 43.2 ± 17.4% | –
Cc1c(C)c2c(c(C)c1OC(=O)CCC(=O)O)CC[C@@](C)(CCC[C@H](C)CCC[C@H](C)CCCC(C)C)O2 [alpha-tocopherol succinate] | – | – | – | – | – | 85.8 ± 1.4% | 83.9 ± 0.3% | 85.5 ± 2.5% | 90.4 ± 7.4% | 98.7 ± 6.0% | –
Cc1c(C)c2c(c(C)c1O)CCC(C)(CCCC(C)CCCC(C)CCCC(C)C)O2 (stereo not drawn) [alpha-tocopherol, 2,5,7,8-tetramethyl-2-(4′,8′,12′-trimethyltridecyl)-6-chromanol] | – | – | – | – | – | – | – | – | – | – | cell death when tested individually (biochanin A experiment): about half of the cells died
COc1ccc(-c2coc3cc(O)cc(O)c3c2=O)cc1 [biochanin A, 5,7-dihydroxy-4′-methoxyiso-flavone] | – | – | – | – | – | – | – | – | – | – | cell death when tested individually (biochanin A experiment): about half of the cells died
O=c1c(-c2ccc(O)cc2)coc2cc(O)ccc12 [daidzein, 7-hydroxy-3-(4-hydroxyphenyl)-4H-1-benzopyran-4-one] | – | – | – | – | – | – | – | – | – | – | cell death when tested individually (daidzein experiment): over half of the cells died
COc1ccc(-c2cc(=O)c3c(O)cc(O[C@@H]4O[C@H](CO[C@@H]5O[C@@H](C)[C@H](O)[C@@H](O)[C@H]5O)[C@@H](O)[C@H](O)[C@H]4O)cc3o2)cc1O [diosmin, reference compound] | – | – | – | – | – | – | – | – | – | – | protection against stress-induced cell death (diosmin alone at 100 μM): no protection; protection against stress-induced cell death (diosmin alone, 3.3-100 μM): not protective by itself; protection against stress-induced cell death (diosmin alone, 33-100 μM): not effective
COc1ccc([C@@H]2CC(=O)c3c(O)cc(O)cc3O2)cc1O [hesperetin, (S)-2,3-dihydro-5,7-dihydroxy-2-(3-hydroxy-4-methoxyphenyl)-4H-1-benzopyran-4-one] | – | – | – | – | – | – | – | – | – | – | efficacy when tested separately (2 and 50 μM heperitin, 0.22 and 3.6 μg/ml tocopherol, cell death four hours later): generally ineffective

Reference: patent US6426362B1, “Formulations of tocopherols and methods of making and using them” (Galileo Laboratories, Inc., priority 1999, dated 2002)
